The text below walks through data of PMC9032570, “Flavonoids and Phenols, the Potential Anti-Diabetic Compounds from Bauhinia strychnifolia Craib. Stem” (Molecules, 2022).

≈ marks a conversion by molar mass, not a printed value. Where two headings read alike, the source gives them in different places. Some results are limits rather than exact numbers.

Test [1] deals with T1, dipeptidyl peptidase-IV (DPP-IV) from porcine kidney (Sus scrofa, UniProt P22411).
T1 construct: purchased Sigma Aldrich Inc. (St. Louis, MO. USA); host or cells: porcine kidney (tissue-derived enzyme)
As to the kind of experiment: Dipeptidyl peptidase-IV (DPP-IV) inhibitory assay (GP-p-NA substrate). In kind it is biochemical. An excerpt: (§1) Folin–Ciocalteu reagent was bought from Merck (Darmstadt, Germany). Fetal bovine serum (FBS), penicillin-streptomycin, Dulbecco’s Modified Eagle Medium, high glucose (DMEM, high glucose), Roswell Park Memorial Institute (RPMI) 1640 medium, trypsin-EDTA, trypan blue dyes, and 3-(4,5-dimethylthiazol-2-yl)-2,5 diphenyltetrazolium bromide (MTT) were obtained from Thermo Fisher Scientific (Waltham, CA, USA). Ethanol, methanol, hexane, dichloromethane, ethyl acetate, and acetone (as analytical grades) were purchased from Labscan Asia Co., Bangkok, Thailand.
The DPP-IV inhibition activities of crude extract, partitioned fractions, and isolated pure compounds were investigated, following the procedure of Van et al. (2009) and Al-Masri et al. (2009), with some modifications. Concisely, 40 µL of each sample diluted in 50 mM Tris-HCl buffer, pH 8.0 (at final concentration 50 ug/mL), was pre-incubated with 30 µL of 0.05 U/mL of DPP-IV enzyme at 37 °C. After 10 min, 100 µL of 0.2 mM GP-p-NA substrate was added to the solution and further incubated for 30 min. Then, the reaction was terminated with 30 µL of 25% acetic acid, and the absorbance at 405 nm was suddenly measured by a microplate reader (DTX880 Multimode Detector, Beckman Coulter®, Wein, Austria). The percentage of inhibition was calculated, following the formula: [(Acontrol − Asample)/Acontrol] × 100, where Acontrol and Asample were the absorbances of reaction with and without sample, respectively. Diprotin A was employed as a positive control, and the results were presented as the IC50 value.

The test system of test [2] is 3T3-L1 adipocytes. As to the kind of experiment: Glucose uptake assay in differentiated 3T3-L1 adipocytes (GO kit). In kind it is cell-based, mouse. The settings on record: for glucose uptake stimulation: positive control.
Experimental: The 3T3-L1 pre-adipocytes were induced to differentiate into adult adipocytes after 48 h of confluence in 48 wells plate. The cells were incubated with cultured media, comprising of 1 µg/mL insulin, 10 µM dexamethasone, and 0.5 mM IBMX. After 48 h of incubation, differentiate media were removed and replaced with cultured media containing 1 µg/mL insulin. Then, the maintained media were changed every two days for eight days.
The glucose uptake stimulatory effect of crude extract, partitioned fractions, and isolated compounds was determined by the previously described method [60]. Briefly, differentiated adipocytes were grown in 48-well plates, with cultured media containing 2% FBS, for 18 h. Then, the cells were washed and treated with various concentrations of samples in a complete low glucose medium. After 24 h of incubation, the treated medium of samples was individually transferred into 96-well plates and mixed with the reagent of the GO kit at 37 °C for 30 min. The reaction was terminated by 6M H2SO4, and the absorbance of remaining glucose at 540 nm was recorded by a microplate reader. The ability to enhance glucose uptake was measured by the amount of glucose in the media. The percentage of glucose uptake stimulation was calculated by following equation: %stimulation = [(Acontrol − Asample)/Acontrol] × 100, where Acontrol and Asample were the absorbances of reaction with and without sample, respectively.
Test [3] deals with LPS-induced raw 264.7 cells. Put plainly: Nitric oxide production in LPS-induced raw 264.7 cells (Griess assay). It counts as cell-based, murine. The settings on record: 200 ng/mL LPS, 24 h, Figure 5. Here is the method:
The investigation of the inhibitory activities against LPS induced nitric oxide (NO) production of crude extract, partitioned fractions, and isolated compounds by Griess assay, which was accomplished as described by Kaewdana et al.. Briefly, Raw264.7 cells were seeded, at the density of 1 × 10^5 cells/well, in 96-well plates. After 1–2 h culture, the medium was changed and co-treated with different concentrations of samples and 200 ng/mL LPS for 24 h. After that, the nitrite-containing medium was equally mixed with the Griess reagent (1% sulfanilamide in 5% phosphoric acid and 0.1% naphthyl ethylenediamine dihydrochloride (NED) in water) and measured by a microplate reader at 570 nm. Indomethacin (a nonsteroidal anti-inflammatory drug) was used as a positive control. Results were shown as the percentage of inhibition calculated, following the equation: [(Acontrol − Asample)/Acontrol] × 100.
A general note: Nitrite, measured by Griess reagent, commonly stands in for NO production.

The target in test [4] is α-glucosidase. Also noted: method as in earlier work. Conditions: known active flavonoids from B. strychnifolia stem; cited from earlier work.
The target of test [5] is T2, α-glucosidase from Saccharomyces cerevisiae (Saccharomyces cerevisiae, UniProt P53341).
T2 construct: purchased Sigma Aldrich Inc. (St. Louis, MO. USA)
Put plainly: α-Glucosidase inhibitory assay (pNPG substrate). It counts as biochemical. Conditions: for IC50: IC50 α-Glucosidase.
From the text: as §1
The inhibitory effects against α-glucosidase enzyme of crude extract, partitioned fractions, and all isolated pure compounds were examined according to previous assay. In brief, 50 µL of each sample in 50 mM phosphate buffer, pH 6.9 (at various concentrations), was pre-mixed with 50 µL of 0.57 U/mL α-glucosidase enzyme for 10 min at 37 °C. Then, 50 µL of 5 mM pNPG substrate was added into the mixture and further incubated for 30 min, after that stopping the reaction by 50 µL of 1 M sodium carbonate solution (Na2CO3). A microplate reader (DTX880 Multimode Detector, Beckman Coulter®, Wien, Austria) immediately measured the absorbance at 405 nm. The following equation calculated the percentage of inhibition: [(Acontrol − Asample)/Acontrol] × 100, where Acontrol and Asample were the absorbance of reaction without and with the sample, respectively.

[6] abbreviates: molar value, in parentheses in Table 3.

T1 sequence (P22411 whole entry): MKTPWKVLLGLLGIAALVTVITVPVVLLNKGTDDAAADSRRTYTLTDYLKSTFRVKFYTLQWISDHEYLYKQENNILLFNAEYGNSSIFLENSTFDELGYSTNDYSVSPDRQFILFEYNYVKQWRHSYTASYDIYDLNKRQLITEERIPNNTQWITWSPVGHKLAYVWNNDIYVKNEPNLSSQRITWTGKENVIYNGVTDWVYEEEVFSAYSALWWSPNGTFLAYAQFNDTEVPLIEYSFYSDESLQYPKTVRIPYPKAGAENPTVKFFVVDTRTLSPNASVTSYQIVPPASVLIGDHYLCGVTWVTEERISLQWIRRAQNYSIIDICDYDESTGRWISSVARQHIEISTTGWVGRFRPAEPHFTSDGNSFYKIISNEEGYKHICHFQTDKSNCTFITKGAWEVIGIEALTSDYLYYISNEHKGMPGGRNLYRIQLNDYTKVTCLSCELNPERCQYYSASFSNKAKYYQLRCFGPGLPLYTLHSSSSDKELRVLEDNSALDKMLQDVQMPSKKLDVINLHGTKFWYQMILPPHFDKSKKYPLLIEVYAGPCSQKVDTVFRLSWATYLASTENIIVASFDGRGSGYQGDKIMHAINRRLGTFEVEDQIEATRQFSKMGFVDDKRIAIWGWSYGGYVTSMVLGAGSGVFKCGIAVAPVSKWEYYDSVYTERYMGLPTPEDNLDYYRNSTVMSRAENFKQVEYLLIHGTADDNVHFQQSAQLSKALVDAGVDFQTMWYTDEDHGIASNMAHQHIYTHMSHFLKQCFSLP
T2 sequence (P53341 whole entry): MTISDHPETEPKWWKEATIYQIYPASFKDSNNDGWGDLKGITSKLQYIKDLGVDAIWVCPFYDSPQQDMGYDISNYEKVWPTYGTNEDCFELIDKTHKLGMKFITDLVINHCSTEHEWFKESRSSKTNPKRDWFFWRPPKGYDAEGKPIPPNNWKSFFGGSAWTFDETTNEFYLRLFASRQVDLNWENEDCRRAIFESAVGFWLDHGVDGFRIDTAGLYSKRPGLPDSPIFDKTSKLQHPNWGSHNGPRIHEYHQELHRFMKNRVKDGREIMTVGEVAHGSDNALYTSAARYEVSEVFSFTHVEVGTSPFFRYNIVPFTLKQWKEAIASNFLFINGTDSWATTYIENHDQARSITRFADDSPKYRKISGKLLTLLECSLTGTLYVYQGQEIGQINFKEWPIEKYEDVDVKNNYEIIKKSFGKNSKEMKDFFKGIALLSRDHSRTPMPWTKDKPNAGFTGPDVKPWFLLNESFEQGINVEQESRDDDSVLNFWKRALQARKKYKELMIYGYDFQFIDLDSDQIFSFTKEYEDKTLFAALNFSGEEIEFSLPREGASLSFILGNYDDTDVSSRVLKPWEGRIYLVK

Turning to `O=c1c(O)c(-c2ccc(O)c(O)c2)oc2cc(O)cc(O)c12` [Quercetin], the IC50 in test [1] was 8.24 µM; in test [1] (setting [6]), 8.25 µM. In addition, the “glucose uptake stimulation effect (in words)” value in test [2] (Figure 4) was “higher glucose uptake stimulation effect than resveratrol, gallic acid, and epicatechin”. Moreover, the “effect on NO production (in words)” value in test [3] is “no effect”.

For `Oc1ccc(/C=C/c2cc(O)cc(O)c2)cc1` [Resveratrol], the IC50 in test [1] and in test [1] (setting [6]) was 14.1 µM each time. Besides, in test [3], the “effect on NO production (in words)” value is “inhibitory effect on NO production at only high concentrations”.

`COc1ccc2c(c1)c(CC(=O)O)c(C)n2C(=O)c1ccc(Cl)cc1` [Indomethacin, indomethacin, reference compound]: the “effect on NO production (in words)” value in test [3] is listed as “potent anti-inflammatory”.

As to `C[C@@H]1O[C@@H](Oc2coc3cc(O)cc(O)c3c2=O)[C@H](O)[C@H](O)[C@H]1O` [3,5,7-Trihydroxychromone-3-O-α-L-rhamnopyranoside], the “IC50 α-glucosidase inhibitory effect” value in test [4] is given as 540 µg/mL (≈ 1590 µM).

insulin: in test [2] (100 nM), the glucose uptake stimulation was found to be 92.81%.

In test [2] (2 mM), `CN(C)C(=N)N=C(N)N` [metformin, reference compound] came in with a glucose uptake stimulation of 85.34%.

Regarding `O=C(O)c1cc(O)c(O)c(O)c1` [Gallic acid], in test [5], the “α-glucosidase inhibitory ability (in words)” value is on record as “no effect”. The IC50 in test [5] is over 25 µM; in test [5] (setting [6]) it was over 25 µM; in test [1] it was over 50 µM; in test [1] (setting [6]), over 50 µM. Besides, the “effect on NO production (in words)” value in test [3] was “inhibitory effect on NO production at only high concentrations”.

As for `Oc1cc(O)c2c(c1)O[C@H](c1ccc(O)c(O)c1)[C@H](O)C2` [Epicatechin], in test [5], the “α-glucosidase inhibitory ability (in words)” value is reported as “no effect”. Also, the IC50 in test [1] and in test [1] (setting [6]) was over 50 µM in each case. Also, in test [3], the “effect on NO production (in words)” value is given as “inhibitory effect on NO production at only high concentrations”.

As a reminder, the IC50 is the concentration needed to halve the response being measured.
